Active and inactive are the calls of the source.
Experiments:
Cytochrome P450 2D6 = Cytochrome P450 2D6 (Homo sapiens, UniProt P10635); assay: qHTS Assay for Inhibitors and Substrates of Cytochrome P450 2D6. [Related pubchem assays: 410 ]; type: ADME; conditions: read-out: Potency
[1] = biological target: Dual specificity tyrosine-phosphorylation-regulated kinase 1A (Rattus norvegicus, UniProt Q63470); type: biochemical, Homo sapiens
Large T antigen = Large T antigen (Simian virus 40, UniProt P03070); type: functional, Betapolyomavirus macacae;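 also: Confirmatory-stage PubChem screen for compounds that inhibit SV40 T antigen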
[2] = biological target: T1, Histone-lysine N-methyltransferase NSD2 (Homo sapiens, UniProt O96028); type: biochemical
T1 sequence (O96028 whole entry): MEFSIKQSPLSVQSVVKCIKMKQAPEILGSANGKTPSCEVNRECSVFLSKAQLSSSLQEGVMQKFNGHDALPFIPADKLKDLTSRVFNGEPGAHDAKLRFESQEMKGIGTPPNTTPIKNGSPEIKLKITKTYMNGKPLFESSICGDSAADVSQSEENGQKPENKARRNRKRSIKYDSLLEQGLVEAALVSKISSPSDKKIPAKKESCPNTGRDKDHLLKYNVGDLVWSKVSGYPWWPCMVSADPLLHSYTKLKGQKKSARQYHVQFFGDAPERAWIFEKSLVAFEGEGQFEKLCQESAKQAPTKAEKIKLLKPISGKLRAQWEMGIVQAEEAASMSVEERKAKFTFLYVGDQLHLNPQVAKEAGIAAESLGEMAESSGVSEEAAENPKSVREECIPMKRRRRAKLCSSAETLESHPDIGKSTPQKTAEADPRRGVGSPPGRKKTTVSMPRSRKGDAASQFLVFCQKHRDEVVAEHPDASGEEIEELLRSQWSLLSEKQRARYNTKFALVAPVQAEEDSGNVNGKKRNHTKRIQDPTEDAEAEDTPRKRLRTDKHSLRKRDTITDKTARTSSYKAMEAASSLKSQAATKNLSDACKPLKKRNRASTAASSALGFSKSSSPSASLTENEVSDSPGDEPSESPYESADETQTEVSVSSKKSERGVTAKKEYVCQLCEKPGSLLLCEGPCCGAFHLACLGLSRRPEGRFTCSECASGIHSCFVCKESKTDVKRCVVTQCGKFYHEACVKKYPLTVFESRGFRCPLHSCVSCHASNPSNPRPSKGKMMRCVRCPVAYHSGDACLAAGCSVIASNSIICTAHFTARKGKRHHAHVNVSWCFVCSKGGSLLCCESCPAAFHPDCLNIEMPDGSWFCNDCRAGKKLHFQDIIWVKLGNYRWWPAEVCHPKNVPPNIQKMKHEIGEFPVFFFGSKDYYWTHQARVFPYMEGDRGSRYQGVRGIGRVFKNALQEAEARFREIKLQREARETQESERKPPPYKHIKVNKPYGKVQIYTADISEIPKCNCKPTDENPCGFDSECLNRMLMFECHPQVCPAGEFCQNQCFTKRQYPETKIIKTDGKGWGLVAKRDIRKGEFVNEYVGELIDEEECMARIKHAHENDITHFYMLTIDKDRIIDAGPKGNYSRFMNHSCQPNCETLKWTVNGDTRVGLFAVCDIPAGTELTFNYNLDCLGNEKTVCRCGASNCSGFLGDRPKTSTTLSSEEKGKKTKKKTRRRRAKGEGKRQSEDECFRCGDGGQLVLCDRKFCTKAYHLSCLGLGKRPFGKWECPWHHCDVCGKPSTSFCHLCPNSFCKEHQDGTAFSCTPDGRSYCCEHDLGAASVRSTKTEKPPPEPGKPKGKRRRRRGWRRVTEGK

[3] = viability of uninfected HEp-2 cells – cell-based, HTS, cytotoxicity control for RSV inhibitor project, dose response (AID 2410); type: functional; conditions: human respiratory syncytial virus
Cytochrome P450 3A4 = Cytochrome P450 3A4 (Homo sapiens, UniProt P08684); conditions: Potency;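 also: confirmatory qHTS run detecting inhibitors and substrates of CYP3A4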
Leucine aminopeptidase = biological target: T2, Leucine aminopeptidase (Plasmodium falciparum 3D7, UniProt Q8IL11); assay: P. falciparum M17LAP inhibitors, primary screen, biochemical, fluorogenic H-Leu-NHMec substrate, 1536-well (AID 1619); type: functional
T2 sequence (Q8IL11 whole entry): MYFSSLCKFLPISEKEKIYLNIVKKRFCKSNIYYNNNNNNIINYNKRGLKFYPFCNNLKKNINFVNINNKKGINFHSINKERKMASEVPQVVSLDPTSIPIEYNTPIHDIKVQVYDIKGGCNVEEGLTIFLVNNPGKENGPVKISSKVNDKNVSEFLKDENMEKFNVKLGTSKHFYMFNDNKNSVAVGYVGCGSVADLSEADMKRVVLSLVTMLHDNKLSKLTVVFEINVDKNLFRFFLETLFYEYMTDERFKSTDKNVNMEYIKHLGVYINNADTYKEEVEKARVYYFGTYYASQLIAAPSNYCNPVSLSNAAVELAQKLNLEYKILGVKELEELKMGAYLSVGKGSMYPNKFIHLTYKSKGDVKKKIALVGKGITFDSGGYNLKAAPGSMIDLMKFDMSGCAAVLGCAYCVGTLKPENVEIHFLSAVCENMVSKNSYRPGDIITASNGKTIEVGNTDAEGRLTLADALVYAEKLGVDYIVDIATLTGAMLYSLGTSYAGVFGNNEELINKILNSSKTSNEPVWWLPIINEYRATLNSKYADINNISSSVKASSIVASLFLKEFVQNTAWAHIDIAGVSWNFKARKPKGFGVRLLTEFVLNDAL

Aminopeptidase N = biological target: T3, Aminopeptidase N (Plasmodium falciparum FcB1/Columbia, UniProt O96935); assay: malaria alanyl aminopeptidase activity blockers – biochemical, fluorogenic H-Leu-NHMec substrate, 1536-well (AID 1445); design: species or system Plasmodium falciparum 3D7, 3D7
T3 sequence (O96935 whole entry): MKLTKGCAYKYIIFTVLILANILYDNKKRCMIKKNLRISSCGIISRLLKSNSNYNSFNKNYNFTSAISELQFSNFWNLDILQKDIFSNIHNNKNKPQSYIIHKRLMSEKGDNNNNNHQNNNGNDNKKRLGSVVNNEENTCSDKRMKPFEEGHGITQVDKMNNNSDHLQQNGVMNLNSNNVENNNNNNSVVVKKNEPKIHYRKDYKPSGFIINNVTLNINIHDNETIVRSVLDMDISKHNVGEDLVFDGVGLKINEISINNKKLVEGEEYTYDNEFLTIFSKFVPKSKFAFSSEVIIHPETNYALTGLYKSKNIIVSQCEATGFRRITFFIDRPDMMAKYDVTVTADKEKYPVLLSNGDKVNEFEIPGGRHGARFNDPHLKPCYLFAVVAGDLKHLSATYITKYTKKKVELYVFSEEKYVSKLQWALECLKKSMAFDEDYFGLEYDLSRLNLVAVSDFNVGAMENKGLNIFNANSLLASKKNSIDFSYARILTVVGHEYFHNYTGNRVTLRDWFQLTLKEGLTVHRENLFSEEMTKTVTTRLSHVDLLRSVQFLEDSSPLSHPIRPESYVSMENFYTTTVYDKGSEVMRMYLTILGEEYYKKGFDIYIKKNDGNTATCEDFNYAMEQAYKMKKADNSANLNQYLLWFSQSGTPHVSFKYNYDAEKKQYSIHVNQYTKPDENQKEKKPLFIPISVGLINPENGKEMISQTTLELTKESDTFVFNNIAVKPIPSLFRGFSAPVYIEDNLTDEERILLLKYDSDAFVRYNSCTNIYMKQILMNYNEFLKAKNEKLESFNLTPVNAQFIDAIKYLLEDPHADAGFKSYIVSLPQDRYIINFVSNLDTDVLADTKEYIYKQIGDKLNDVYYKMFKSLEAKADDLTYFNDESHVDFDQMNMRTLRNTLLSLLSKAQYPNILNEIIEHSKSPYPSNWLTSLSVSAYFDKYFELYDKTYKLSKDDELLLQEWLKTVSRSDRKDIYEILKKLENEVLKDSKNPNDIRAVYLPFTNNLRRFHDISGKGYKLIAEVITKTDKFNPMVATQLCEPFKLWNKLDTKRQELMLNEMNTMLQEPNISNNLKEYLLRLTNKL

[4] = biological target: FAD-linked sulfhydryl oxidase ALR (Homo sapiens, UniProt P55789); assay: ALR-catalysed DTT oxidation blockers – biochemical, H2O2 detection, luminescence, cherry-pick, dose response (AID 493248)
[5] = general mammalian cell viability loss – inhibitor set, cherry-pick, set 2, cytotoxicity control for miR-122 modulator project, dose response (AID 720697); type: functional, cell-based
[6] = luciferase reporter signal suppression in cells – H4 neuroglioma cells, luminescence, dose response (AID 1990); type: functional, cell-based
[7] = Luminescence Cell-Based Dose Response HTS to Identify Inhibitors of 5'UTR Stem-Loop Driven Prion Protein mRNA Translation in H4 Neuroglioblastoma Cells. [Related pubchem assays: 1827 (Project Summary), 1813 (Primary HTS)]; type: functional
[8] = alpha-synuclein stem-loop luciferase translation blockers – H4 neuroglioma cells, luminescence, confirmation (AID 1988); type: functional, cell-based
[9] = biological target: Voltage-dependent T-type calcium channel subunit alpha-1H (Homo sapiens, UniProt O95180); type: functional;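 also: channel activity triggered by adding a high calcium stimulation buffer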
[10] = Luminescence Cell-Based Dose Confirmation HTS to Identify Inhibitors of Platelet Dense Granule Release. [Related pubchem assays: 1663 (Primary HTS), 1678 (Summary of Project)]; type: functional
[11] = biological target: Luciferin 4-monooxygenase (Photinus pyralis, UniProt P08659); assay: inhibition of purified Photinus pyralis luciferase – biochemical, luminescence, dose response (AID 1891)
Caspase-6 = biological target: T4, Caspase-6 (Homo sapiens, UniProt P55212); assay: inhibition of CASP6 peptide cleavage – biochemical, VEID-R110 fluorescence, cherry-pick, dose response (AID 720632)
T4 sequence (P55212 whole entry): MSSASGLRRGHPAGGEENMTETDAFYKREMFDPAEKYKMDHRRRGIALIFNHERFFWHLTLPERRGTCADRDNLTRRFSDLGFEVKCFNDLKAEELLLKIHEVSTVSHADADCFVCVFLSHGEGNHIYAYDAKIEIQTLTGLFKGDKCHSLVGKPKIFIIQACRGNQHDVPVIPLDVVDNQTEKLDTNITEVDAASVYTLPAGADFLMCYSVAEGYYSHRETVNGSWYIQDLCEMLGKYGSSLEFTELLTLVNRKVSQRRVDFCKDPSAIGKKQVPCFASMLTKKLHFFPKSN

Chain of Voltage-dependent T-type calcium channel subunit alpha-1H (O95180 whole entry): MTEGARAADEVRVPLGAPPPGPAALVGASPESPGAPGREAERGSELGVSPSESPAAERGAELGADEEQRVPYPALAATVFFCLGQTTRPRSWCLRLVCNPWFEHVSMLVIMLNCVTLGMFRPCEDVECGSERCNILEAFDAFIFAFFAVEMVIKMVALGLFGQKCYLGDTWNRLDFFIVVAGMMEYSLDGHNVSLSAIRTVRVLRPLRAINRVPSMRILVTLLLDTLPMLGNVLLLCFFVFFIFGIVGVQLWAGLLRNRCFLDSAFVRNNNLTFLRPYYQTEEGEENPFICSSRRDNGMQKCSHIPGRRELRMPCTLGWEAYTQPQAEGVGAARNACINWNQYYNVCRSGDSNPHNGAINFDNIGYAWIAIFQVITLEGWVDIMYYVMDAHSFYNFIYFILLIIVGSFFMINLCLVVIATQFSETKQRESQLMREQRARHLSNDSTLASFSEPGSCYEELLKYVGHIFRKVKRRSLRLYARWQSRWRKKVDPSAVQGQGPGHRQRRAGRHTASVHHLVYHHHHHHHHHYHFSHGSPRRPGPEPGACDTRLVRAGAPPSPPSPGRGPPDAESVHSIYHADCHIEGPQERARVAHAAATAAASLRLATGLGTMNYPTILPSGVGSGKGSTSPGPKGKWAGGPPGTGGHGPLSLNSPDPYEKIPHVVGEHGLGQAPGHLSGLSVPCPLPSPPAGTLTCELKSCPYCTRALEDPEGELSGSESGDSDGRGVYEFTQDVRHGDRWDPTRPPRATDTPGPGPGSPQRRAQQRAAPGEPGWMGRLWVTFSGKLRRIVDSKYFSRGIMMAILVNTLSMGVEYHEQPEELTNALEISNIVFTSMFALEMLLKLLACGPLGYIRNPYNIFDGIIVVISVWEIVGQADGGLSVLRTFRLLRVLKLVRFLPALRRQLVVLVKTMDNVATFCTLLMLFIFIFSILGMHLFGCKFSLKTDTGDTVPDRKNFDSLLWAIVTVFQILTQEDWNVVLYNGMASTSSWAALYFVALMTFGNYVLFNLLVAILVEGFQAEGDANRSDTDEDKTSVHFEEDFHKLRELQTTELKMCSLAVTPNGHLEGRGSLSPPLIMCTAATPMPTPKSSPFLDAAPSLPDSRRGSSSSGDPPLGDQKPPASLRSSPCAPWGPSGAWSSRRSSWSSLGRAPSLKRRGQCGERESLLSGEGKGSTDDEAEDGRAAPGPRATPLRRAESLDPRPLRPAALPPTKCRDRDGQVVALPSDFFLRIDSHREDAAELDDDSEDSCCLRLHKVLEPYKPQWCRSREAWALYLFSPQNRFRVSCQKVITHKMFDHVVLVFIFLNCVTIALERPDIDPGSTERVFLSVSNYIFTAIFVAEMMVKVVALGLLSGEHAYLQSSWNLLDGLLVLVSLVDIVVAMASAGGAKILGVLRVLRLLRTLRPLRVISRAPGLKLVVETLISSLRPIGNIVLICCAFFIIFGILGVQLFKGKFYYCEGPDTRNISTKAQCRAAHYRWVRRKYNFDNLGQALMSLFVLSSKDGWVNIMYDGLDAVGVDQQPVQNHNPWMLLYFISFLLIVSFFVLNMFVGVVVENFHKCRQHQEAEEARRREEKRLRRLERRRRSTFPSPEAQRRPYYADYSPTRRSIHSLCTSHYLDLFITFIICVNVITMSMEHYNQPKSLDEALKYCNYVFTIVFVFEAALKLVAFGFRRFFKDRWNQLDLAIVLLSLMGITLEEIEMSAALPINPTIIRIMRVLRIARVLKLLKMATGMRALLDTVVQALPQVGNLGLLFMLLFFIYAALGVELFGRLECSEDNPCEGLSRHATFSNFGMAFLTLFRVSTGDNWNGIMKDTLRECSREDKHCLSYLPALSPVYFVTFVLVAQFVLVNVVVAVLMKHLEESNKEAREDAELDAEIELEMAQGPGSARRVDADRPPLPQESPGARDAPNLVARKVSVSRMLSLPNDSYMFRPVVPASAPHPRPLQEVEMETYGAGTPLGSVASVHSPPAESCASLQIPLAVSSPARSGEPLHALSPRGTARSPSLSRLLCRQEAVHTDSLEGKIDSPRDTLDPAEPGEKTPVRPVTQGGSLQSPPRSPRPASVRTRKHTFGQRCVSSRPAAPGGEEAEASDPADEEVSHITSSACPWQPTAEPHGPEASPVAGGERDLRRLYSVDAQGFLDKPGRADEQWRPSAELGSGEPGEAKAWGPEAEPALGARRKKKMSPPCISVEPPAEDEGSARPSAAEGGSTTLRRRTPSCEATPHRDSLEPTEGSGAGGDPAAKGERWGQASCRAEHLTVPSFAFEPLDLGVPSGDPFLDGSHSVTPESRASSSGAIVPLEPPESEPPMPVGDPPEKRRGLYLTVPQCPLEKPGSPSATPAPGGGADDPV
Chain of Cytochrome P450 2D6 (P10635 whole entry): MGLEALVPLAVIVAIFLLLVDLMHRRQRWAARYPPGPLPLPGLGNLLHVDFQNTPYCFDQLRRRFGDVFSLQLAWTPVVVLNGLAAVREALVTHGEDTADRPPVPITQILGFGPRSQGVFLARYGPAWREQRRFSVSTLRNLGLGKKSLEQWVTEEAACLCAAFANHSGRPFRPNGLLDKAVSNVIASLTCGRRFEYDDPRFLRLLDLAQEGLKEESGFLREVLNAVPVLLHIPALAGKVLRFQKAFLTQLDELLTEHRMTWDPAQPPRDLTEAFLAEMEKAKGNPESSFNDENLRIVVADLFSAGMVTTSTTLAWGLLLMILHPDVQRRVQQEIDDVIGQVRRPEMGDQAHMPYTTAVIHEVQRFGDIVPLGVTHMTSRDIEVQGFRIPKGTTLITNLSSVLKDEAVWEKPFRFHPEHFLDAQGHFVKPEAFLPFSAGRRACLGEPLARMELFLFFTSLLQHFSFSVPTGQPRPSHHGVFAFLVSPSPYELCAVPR
Chain of Large T antigen (P03070 whole entry): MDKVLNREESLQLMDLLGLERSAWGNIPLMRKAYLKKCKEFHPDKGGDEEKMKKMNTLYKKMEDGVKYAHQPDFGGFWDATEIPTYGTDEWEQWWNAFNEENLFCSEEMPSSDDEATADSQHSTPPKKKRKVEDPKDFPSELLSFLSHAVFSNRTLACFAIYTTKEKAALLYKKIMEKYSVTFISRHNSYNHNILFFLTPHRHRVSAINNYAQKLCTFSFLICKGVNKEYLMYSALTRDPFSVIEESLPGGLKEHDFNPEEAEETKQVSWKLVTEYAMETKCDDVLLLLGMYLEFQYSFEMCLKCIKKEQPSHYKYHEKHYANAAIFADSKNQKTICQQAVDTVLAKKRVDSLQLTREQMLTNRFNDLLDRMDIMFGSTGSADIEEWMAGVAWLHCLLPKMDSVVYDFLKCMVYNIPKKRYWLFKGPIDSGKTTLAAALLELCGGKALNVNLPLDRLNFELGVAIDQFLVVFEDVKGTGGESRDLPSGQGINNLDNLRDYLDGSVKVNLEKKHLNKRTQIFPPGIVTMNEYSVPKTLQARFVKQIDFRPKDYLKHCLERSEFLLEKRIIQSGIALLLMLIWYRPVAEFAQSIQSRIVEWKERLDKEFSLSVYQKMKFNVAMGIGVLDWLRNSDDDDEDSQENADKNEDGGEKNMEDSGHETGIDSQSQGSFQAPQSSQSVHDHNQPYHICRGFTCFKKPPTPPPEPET
Chain of Luciferin 4-monooxygenase (P08659 whole entry): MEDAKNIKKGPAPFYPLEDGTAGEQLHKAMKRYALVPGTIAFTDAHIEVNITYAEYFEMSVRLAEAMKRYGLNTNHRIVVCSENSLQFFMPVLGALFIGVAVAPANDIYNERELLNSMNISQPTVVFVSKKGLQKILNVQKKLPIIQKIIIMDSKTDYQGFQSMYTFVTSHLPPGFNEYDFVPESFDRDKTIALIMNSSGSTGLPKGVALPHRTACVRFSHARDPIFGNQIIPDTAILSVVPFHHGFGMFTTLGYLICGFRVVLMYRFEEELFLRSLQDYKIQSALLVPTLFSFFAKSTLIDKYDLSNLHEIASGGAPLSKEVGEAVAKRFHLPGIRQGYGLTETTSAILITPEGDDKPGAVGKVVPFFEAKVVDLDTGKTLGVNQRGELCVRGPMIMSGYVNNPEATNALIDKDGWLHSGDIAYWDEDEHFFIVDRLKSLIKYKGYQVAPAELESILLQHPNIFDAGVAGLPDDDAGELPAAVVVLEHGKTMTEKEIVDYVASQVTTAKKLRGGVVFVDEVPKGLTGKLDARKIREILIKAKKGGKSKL
Chain of FAD-linked sulfhydryl oxidase ALR (P55789 whole entry): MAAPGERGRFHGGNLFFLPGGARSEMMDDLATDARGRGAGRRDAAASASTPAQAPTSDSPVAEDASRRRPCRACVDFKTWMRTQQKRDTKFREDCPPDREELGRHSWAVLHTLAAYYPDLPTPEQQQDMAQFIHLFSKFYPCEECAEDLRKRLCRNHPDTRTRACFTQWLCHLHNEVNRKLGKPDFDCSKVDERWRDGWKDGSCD
Chain of Cytochrome P450 3A4 (P08684 whole entry): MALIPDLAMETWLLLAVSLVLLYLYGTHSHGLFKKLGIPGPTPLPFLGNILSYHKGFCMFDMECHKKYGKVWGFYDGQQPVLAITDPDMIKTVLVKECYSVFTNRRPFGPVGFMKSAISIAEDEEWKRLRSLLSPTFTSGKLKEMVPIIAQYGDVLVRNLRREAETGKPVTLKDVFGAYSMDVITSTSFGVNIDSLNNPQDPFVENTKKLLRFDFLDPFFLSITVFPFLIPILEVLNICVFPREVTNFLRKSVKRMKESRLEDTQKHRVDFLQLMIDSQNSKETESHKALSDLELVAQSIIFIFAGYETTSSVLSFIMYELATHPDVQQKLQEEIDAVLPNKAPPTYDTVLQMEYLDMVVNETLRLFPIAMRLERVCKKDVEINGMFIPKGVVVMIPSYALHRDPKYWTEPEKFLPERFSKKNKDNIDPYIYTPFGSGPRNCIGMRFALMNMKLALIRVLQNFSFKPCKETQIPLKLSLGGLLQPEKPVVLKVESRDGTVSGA

Which AC50 (Cytochrome P450 2D6) does the source give for `O=c1c(O)c(-c2cccc(O)c2)oc2ccccc12` here?
The AC50 was 25.1 µM (inconclusive).

With `N#C/C(=C/c1ccc(O)c(O)c1)c1nc2ccccc2[nH]1` as the molecule, how does the AC50 [1] read?
Its AC50 is 2.06 µM (active).

And the IC50 (Large T antigen)?
The IC50 was 12.3 µM (active).

What about the AC50 [2] of the same molecule?
Its AC50 is 2.05 µM (active).

Which results are given for `OCC1(CCOc2ccccc2)CCN(Cc2cccn2-c2ncccn2)CC1`?
CC50 [3]: > 50 µM (active); IC50 (cells): 17.9 µM (active)

With `Cc1nc2ccccn2c(=O)c1CCN1CCC(C(=O)c2ccc(F)cc2)CC1` [PIRENPERONE] as the molecule, how does the AC50 (Cytochrome P450 3A4) read?
The AC50 was 20 µM (inconclusive).

What about the AC50 (Cytochrome P450 2D6) of the same molecule?
The AC50 was 7.94 µM (inconclusive).

For `O=c1cc(-c2ccc(O)c(O)c2)oc2c(C3O[C@H](CO)[C@@H](O)[C@H](O)[C@H]3O)c(O)cc(O)c12` (stereo not given in full), which IC50 (Large T antigen) is on record?
The IC50 was 3.15 µM (active).

What about the IC50 (cells) of the same molecule?
The IC50 was 18 µM (active).

With `CCOc1cc(/C=C(/C#N)c2nc3ccccc3[nH]2)ccc1OCc1ccc(C(=O)O)o1` as the molecule, how does the IC50 (Leucine aminopeptidase) read?
The IC50 was 9.14 µM (active).

What about the IC50 (Aminopeptidase N) of the same molecule?
The IC50 was 60.8 µM (active).

Which results are given for `Cc1ccc2[nH]c(-c3cccc(N)c3)cc2c1`?
CC50 [3]: > 50 µM (active); AC50 [4]: 13.2 µM (active); IC50 (cells): 41.4 µM (active)

Which AC50 [5] does the source give for `COC(=O)c1cc(NS(=O)(=O)c2ccc3c(c2)CCC(=O)N3)cc(C(=O)OC)c1` here?
Its AC50 is 3.3 µM (active).

For `Cc1c(O)c(=O)ccn1Cc1ccccc1`, which EC50 [6] is on record?
Its EC50 is 11.3 µM (active).

What about the EC50 [7] of the same molecule?
Its EC50 is 3.71 µM (active).

What about the AC50 (Cytochrome P450 2D6) of the same molecule?
Its AC50 is 3.16 µM (inconclusive).

And the EC50 [8]?
Its EC50 is > 120 µM (not active).

With `COc1cc(OC)c(NC(=O)CS(=O)(=O)Cc2nc(-c3ccc(C)cc3)oc2C)cc1Cl` as the molecule, how does the EC50 [9] read?
Its EC50 is 5.56 µM (active).

Which results are given for `CCn1c(C(=O)N2CCC(C(=O)NCCCSC3CCCCC3)CC2)cc2sccc21`?
EC50 [9]: 3.51 µM (active); EC50 [10]: > 112 µM (not active); EC50 [11]: 25 µM (active)

Which CC50 [3] does the source give for `COc1ccc(OC)c(CNC(=O)c2coc(=O)c3ccccc23)c1` here?
The CC50 was 37.8 µM (active).

And the EC50 [10]?
Its EC50 is 19.5 µM (active).

What about the EC50 [11] of the same molecule?
Its EC50 is > 112 µM (not active).

And the IC50 (cells)?
Its IC50 is 29.3 µM (active).

Which CC50 [3] does the source give for `CCn1cc(C(=O)NCc2cccc(F)c2)c(=O)c2cc(F)c(N3CCN(C(=O)c4ccco4)CC3)cc21` here?
Its CC50 is > 50 µM (active).

And the IC50 (cells)?
Its IC50 is 48.9 µM (active).

Which AC50 (Caspase-6) does the source give for `O=C(O)CCN1CC2([N+](=O)[O-])C=CC(=O)C([N+](=O)[O-])(C1)C2CC(=O)c1ccccc1` (stereo not given) here?
The AC50 was 15.7 µM (active).

Which EC50 [9] does the source give for `O=C(Nc1ccccc1Cl)c1cc(S(=O)(=O)N2CCCCC2)ccc1N1CCOCC1` here?
The EC50 was 5.14 µM (active).

Which EC50 [9] does the source give for `Cc1cc(C)cc(-n2nnc(C(=O)NCc3ccc4c(c3)OCO4)c2N)c1` here?
The EC50 was 2.39 µM (active).

Which results are given for `CCOC(=O)CC1C(=O)NCCN1c1nc2ccc(C)cn2c(=O)c1/C=C1\SC(=S)N(C(C)CC)C1=O` (stereo not given)?
CC50 [3]: 13.3 µM (active); IC50 (Aminopeptidase N): 49.8 µM (active)

— ChEMBL document CHEMBL1201862, “PubChem BioAssay data set” (2004)
